The values below come from ChEMBL document CHEMBL5365428, “Alkyne as a Latent Warhead to Covalently Target SARS-CoV-2 Main Protease” (J Med Chem, 2023).

Calls of active or inactive are those of the source. The calls are words filed in the database; no cut-off is given here.

This experiment deals with Replicase polyprotein 1ab (Severe acute respiratory syndrome coronavirus 2), P0DTD1 [C145A]. Put plainly: Binding affinity to recombinant hexa-His tagged SARS-COV2 main protease C145A mutant expressed in HEK293T cells by in-gel fluorescence analysis. The experiment is classed as cell-based.

As for `C#CC[C@H](NC(=O)C(F)(F)F)C(=O)N1C[C@H]2[C@@H]([C@H]1C(=O)N[C@H](C#C)C[C@@H]1CCNC1=O)C2(C)C`, the result was inactive.
